Experimental data as given in ChEMBL document CHEMBL3813635, “Development of new Malt1 inhibitors and probes” (Bioorg Med Chem, 2016).
Active and inactive are the calls of the source. No cut-off for these calls is given here.

What was measured:
[1] = target: T1, Mucosa-associated lymphoid tissue lymphoma translocation protein 1 (Homo sapiens, UniProt Q9UDY8); assay: (§1) Inhibition of recombinant Malt1 (unknown origin) at 1 to 100 uM preincubated for 1 hr followed by (S)-1-((6-(4-(4-(5,5-Difluoro-3,7-bis(4-methoxyphenyl)-5H-4l4,5l4-dipyrrolo[1,2-c:20,10-f][1,3,2]diazaborinin-10-yl)butyl)-1H-1,2,3-triazol-1-yl)hexanoyl)-L-valyl-L-arginyl)-N-((S)-1-fluoro-6-guanidino-2-oxohexan-3-yl)pyrrolidine-2-carboxamide addition and incubated for 1 hr by SDS-PAGE based competitive activity-based protein profiling assay
T1 sequence (Q9UDY8 whole entry): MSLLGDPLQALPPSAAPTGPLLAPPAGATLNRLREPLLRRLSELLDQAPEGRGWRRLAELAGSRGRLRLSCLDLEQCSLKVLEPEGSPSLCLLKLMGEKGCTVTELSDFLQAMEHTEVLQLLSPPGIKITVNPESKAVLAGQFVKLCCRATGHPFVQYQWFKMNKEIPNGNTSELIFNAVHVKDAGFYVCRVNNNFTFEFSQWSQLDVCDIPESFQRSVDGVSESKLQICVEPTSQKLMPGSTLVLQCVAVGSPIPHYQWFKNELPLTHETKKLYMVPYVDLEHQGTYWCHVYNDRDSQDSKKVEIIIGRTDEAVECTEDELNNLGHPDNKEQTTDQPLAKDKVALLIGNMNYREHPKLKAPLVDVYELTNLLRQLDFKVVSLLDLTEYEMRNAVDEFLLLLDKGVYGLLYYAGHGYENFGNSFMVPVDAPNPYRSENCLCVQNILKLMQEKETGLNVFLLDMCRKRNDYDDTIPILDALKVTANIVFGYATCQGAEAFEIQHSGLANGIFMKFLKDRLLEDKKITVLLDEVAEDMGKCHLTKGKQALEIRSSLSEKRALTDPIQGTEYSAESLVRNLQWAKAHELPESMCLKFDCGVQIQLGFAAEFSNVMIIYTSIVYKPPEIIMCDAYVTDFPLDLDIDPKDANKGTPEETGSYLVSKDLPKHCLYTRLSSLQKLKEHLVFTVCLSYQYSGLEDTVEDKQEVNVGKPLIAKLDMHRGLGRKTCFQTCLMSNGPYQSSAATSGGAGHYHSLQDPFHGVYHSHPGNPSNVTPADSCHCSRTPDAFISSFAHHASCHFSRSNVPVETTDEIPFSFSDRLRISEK

[2] = target: T2, Mucosa-associated lymphoid tissue lymphoma translocation protein 1 (Homo sapiens) (UniProt Q9UDY8); assay: as §1
T2 sequence (whole entry): T1 sequence (Q9UDY8 whole entry)

[3] = target: T1, Mucosa-associated lymphoid tissue lymphoma translocation protein 1; assay: as §1, with “at 10” for “at 1”, “to 1000” for “to 100”
[4] = target: T2, Mucosa-associated lymphoid tissue lymphoma translocation protein 1 (Homo sapiens); assay: as above
[5] = test system: Jurkat; assay: Binding affinity to Malt1 C/A mutant (unknown origin) overexpressed in human Jurkat T cells assessed as protein labeling at 1 uM after 50 mins by Western blot analysis; format: cell-based
[6] = target: T2, Mucosa-associated lymphoid tissue lymphoma translocation protein 1 (Homo sapiens); assay: Binding affinity to Malt1 in phorbol 12-myristate 13-acetate/ionomycin stimulated human Jurkat T cells assessed as protein labeling at 1 uM after 50 mins by SDS-PAGE based activity-based protein profiling assay; format: cell-based
[7] = target: T2, Mucosa-associated lymphoid tissue lymphoma translocation protein 1 (Homo sapiens); assay: Binding affinity to Flag-tagged Malt1 (unknown origin) overexpressed in human Jurkat T cells assessed as protein labeling at 1 uM after 50 mins by Western blot analysis; format: cell-based
[8] = target: T2, Mucosa-associated lymphoid tissue lymphoma translocation protein 1 (Homo sapiens); assay: Binding affinity to recombinant GST-Malt1 (325 to 760 residues) (unknown origin) assessed as protein labeling at 1 uM after 1 hr by SDS-PAGE based activity-based protein profiling assay
[9] = target: T2, Mucosa-associated lymphoid tissue lymphoma translocation protein 1 (Homo sapiens); assay: Binding affinity to recombinant GST-Malt1 (325 to 760 residues) (unknown origin) assessed as protein labeling at 0.05 to 0.5 uM after 1 hr by SDS-PAGE based activity-based protein profiling assay
[10] = target: T2, Mucosa-associated lymphoid tissue lymphoma translocation protein 1 (Homo sapiens); assay: Binding affinity to Malt1 in phorbol 12-myristate 13-acetate/ionomycin stimulated human Jurkat T cells assessed as protein labeling at 1 to 3 uM after 50 mins by SDS-PAGE based activity-based protein profiling assay; format: cell-based
[11] = target: T2, Mucosa-associated lymphoid tissue lymphoma translocation protein 1 (Homo sapiens); assay: Binding affinity to recombinant GST-Malt1 (325 to 760 residues) (unknown origin) assessed as protein labeling at 0.1 to 1 uM after 1 hr by SDS-PAGE based activity-based protein profiling assay
[12] = target: T2, Mucosa-associated lymphoid tissue lymphoma translocation protein 1 (Homo sapiens); assay: Binding affinity to Malt1 in phorbol 12-myristate 13-acetate/ionomycin stimulated human Jurkat T cells assessed as protein labeling at 3 uM after 50 mins by SDS-PAGE based activity-based protein profiling assay; format: cell-based

IC50 [3] [µM]	pIC50(app) [4]	Compound	further results
		COCCOc1nc(-c2ccc(Cl)c(Cl)c2)n(-c2ccc(NC(=O)CCl)cc2)n1	IC50 [1]: 7.8 µM; pIC50(app) [2]: 5.11
26	4.59	COCCOc1nc(-c2ccc(F)c(F)c2)n(-c2ccc(NC(=O)CCl)cc2)n1	
9	5.05	COCCOc1nc(-c2ccc(C)cc2)n(-c2ccc(NC(=O)CCl)cc2)n1	IC50 [1]: 8.2 µM; pIC50(app) [2]: 5.09
98	4.01	COCCOc1nc(-c2ccccc2)n(-c2ccc(NC(=O)CCl)cc2)n1	
15	4.82	COCCOc1nc(-c2ccc(C)c(C)c2)n(-c2ccc(NC(=O)CCl)cc2)n1	
6.8	5.17	COCCOc1nc(-c2ccc(F)cc2)n(-c2ccc(NC(=O)CCl)cc2)n1	IC50 [1]: 10 µM; pIC50(app) [2]: 4.99
34	4.47	C=CC(=O)Nc1ccc(-n2nc(OCCOC)nc2-c2ccc(Cl)c(Cl)c2)cc1	
		CC1=CC(C)=[N+]2C1=Cc1ccc(CCC(=O)N[C@@H](CC(C)C)C(=O)N[C@@H](CCCNC(=N)N)C(=O)N[C@@H](CO)C(=O)N[C@@H](CCCNC(=N)N)C(=O)COC(=O)c3c(C)cccc3C)n1[B-]2(F)F	Activity [5]: inactive; Activity [6]: Active; Activity [7]: Active; Activity [8]: Active
22	4.66	COCCOc1nc(-c2ccc(-c3ccccc3)cc2)n(-c2ccc(NC(=O)CCl)cc2)n1	
22	4.66	COCCOc1nc(-c2ccc(C(F)(F)F)cc2)n(-c2ccc(NC(=O)CCl)cc2)n1	
194	3.71	COCCOc1nc(-c2cccc(OC)c2)n(-c2ccc(NC(=O)CCl)cc2)n1	
93	4.03	COCCOc1nc(-c2cccc(C(F)(F)F)c2)n(-c2ccc(NC(=O)CCl)cc2)n1	
1.5	5.82	COCCOc1nc(-c2ccc(Br)cc2)n(-c2ccc(NC(=O)CCl)cc2)n1	IC50 [1]: 2.1 µM; pIC50(app) [2]: 5.68
45	4.35	COCCOc1nc(-c2ccc(OC)cc2)n(-c2ccc(NC(=O)CCl)cc2)n1	
88	4.06	COCCOc1nc(-c2ccc3c(c2)OCO3)n(-c2ccc(NC(=O)CCl)cc2)n1	
		CN1\C(=C/C=C/C=C/C2=[N+](CCCCCC(=O)NCCOc3nc(-c4ccc(Cl)c(Cl)c4)n(-c4ccc(NC(=O)CCl)cc4)n3)c3ccccc3C2(C)C)C(C)(C)c2ccccc21	Activity [5]: Active; Activity [9]: inactive; Activity [10]: inactive; Activity [7]: Active; Activity [8]: Active
1.6	5.81	COCCOc1nc(-c2ccc(Cl)cc2)n(-c2ccc(NC(=O)CCl)cc2)n1	IC50 [1]: 3 µM; pIC50(app) [2]: 5.52
		COc1ccc(C2=[N+]3C(=C(CCCCc4cn(CCCCCC(=O)N[C@H](C(=O)N[C@@H](CCCNC(=N)N)C(=O)N5CCC[C@H]5C(=O)N[C@@H](CCCNC(=N)N)C(=O)CF)C(C)C)nn4)c4ccc(-c5ccc(OC)cc5)n4[B-]3(F)F)C=C2)cc1	Activity [5]: inactive; Activity [6]: inactive; Activity [11]: Active; Activity [7]: Active; Activity [12]: Active
12	4.92	COCCOc1nc(-c2ccc(OC)c(OC)c2)n(-c2ccc(NC(=O)CCl)cc2)n1	
88	4.05	COCCOc1nc(-c2cccc(F)c2)n(-c2ccc(NC(=O)CCl)cc2)n1	
26	4.57	COCCOc1nc(-c2cccc(Cl)c2)n(-c2ccc(NC(=O)CCl)cc2)n1	
17	4.78	COCCOc1nc(-c2cccc(Br)c2)n(-c2ccc(NC(=O)CCl)cc2)n1	
278	3.56	COCCOc1nc(-c2cccc(C)c2)n(-c2ccc(NC(=O)CCl)cc2)n1	
